Results taken from patent US10759796B2, “CXCR4 inhibitors and uses thereof” (X4 Pharmaceuticals, Inc., priority 2016, dated 2020).

Molecular target: Jurkat cells expressing CXCR4 (Homo sapiens (Human), UniProt P61073)
Sequence (P61073 whole entry): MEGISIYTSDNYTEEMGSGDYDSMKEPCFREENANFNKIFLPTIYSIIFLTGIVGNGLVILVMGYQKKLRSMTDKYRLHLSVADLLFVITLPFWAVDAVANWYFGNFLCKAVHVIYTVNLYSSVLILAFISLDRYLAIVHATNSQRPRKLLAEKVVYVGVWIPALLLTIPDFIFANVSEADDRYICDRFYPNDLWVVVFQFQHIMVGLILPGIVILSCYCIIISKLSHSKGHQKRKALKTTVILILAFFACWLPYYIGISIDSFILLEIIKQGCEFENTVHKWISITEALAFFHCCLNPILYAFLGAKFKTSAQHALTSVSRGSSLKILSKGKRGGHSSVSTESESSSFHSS
Assay: Chemokine (CXCL12-AF647) binding inhibition assay
Details: CXCL12-AF647 25 ng/mL, read-out: IC50 CXCL-12 binding Jurkat
Experimental: Chemokine (CXCL12-AF647) Binding Inhibition Assay
Jurkat cells expressing CXCR4 were washed once with assay buffer (Hanks' balanced salt solution with 20 mM HEPES buffer and 0.2% bovine serum albumin, pH 7.4) and then incubated for 15 min at room temperature with the test compounds diluted in assay buffer at dose-dependent concentrations. Subsequently, CXCL12-AF647 (25 ng/mL) was added to the compound-incubated cells. The cells were incubated for 30 min at room temperature. Thereafter, the cells were washed twice in assay buffer, fixed in 1% paraformaldehyde in PBS, and analyzed on the FL4 channel of a FACSCalibur flow cytometer equipped with a 635-nm red diode laser (Becton Dickinson, San Jose, Calif., USA).
The percentages of inhibition of CXCL12-AF647 binding were calculated according to the formula: [1−((MFI−MFINC)/(MFIPC−MFINC))]×100 where MFI is the mean fluorescence intensity of the cells incubated with CXCL12-AF647 in the presence of the inhibitor, MFINC is the mean fluorescence intensity measured in the negative control (i.e., autofluorescence of unlabeled cells), and MFIPC is the mean fluorescence intensity of the positive control (i.e., cells exposed to CXCL12-AF647 alone).
`Cc1cccnc1[C@@H]1CCC[C@H](c2nc3cccc(N4CCN(C)CC4)n3c2C)N1C` [Compound I-86] showed an IC50 of 0.01 to 100 nM.
Compound `Cc1cccnc1[C@@H]1CCC[C@H](c2cn3ccccc3n2)N1Cc1ccccc1-n1cccn1` [Compound I-16] has an IC50 of 0.01 to 100 nM.
Work on `Cc1cccnc1[C@@H]1CCC[C@H](c2nc3ccccn3c2N2CCN(C)CC2)N1C` [Compound I-152] yielded an IC50 of 0.01 to 100 nM.
`CCN1CCN(c2cccc3nc([C@H]4CCC[C@@H](c5ncccc5C(C)C)N4C)cn23)CC1` [Compound I-111] showed an IC50 of 100 to 1000 nM.
`CCN1CCN(Cc2c([C@H]3CCC[C@@H](c4ncccc4C)N3C)nc3ccccn23)CC1` [Compound I-40] gave an IC50 of 0.01 to 100 nM.
In the case of `CCN1[C@@H](c2nc3cccc(N4CCN(C(C)C)CC4)n3c2Br)CCC[C@H]1c1ncccc1C` [Compound I-45], the IC50 is reported as 100 to 1000 nM.
`CCN1CCN(c2cccc3nc([C@H]4CCC[C@@H](c5ncccc5C(C)C)N4C)c(CO)n23)CC1` [Compound I-75] showed an IC50 of 100 to 1000 nM.
Compound `Cc1cccnc1[C@@H]1CCC[C@H](c2cn3c(N4CCNCC4)cccc3n2)N1C` [Compound I-4] has an IC50 of 0.01 to 100 nM.
Compound `Cc1cccnc1[C@@H]1CCC[C@H](c2nc3cccc(N4C5CCC4CN(C)C5)n3c2Cl)N1C` [Compound I-138] has an IC50 of 0.01 to 100 nM.
For `Cc1cccnc1[C@@H]1CCC[C@H](c2cn3c(N4CCN(C5COC5)CC4)cccc3n2)N1C` [Compound I-52], the IC50 was 100 to 1000 nM.
`Cc1cccnc1[C@@H]1CCC[C@H](c2cn3c(N4CCC(N(C)C)CC4)cccc3n2)N1C` [Compound I-78] showed an IC50 of 0.01 to 100 nM.
For `Cc1cccnc1[C@@H]1CCC[C@H](c2cn3c(N4CCN5CCCC5C4)cccc3n2)N1C` (stereo partly drawn) [Compound I-77], the IC50 was 0.01 to 100 nM.

Tested on: not listed separately
Assay: in vitro
Details: human, Caco-2, pH 7.4
Experimental: Example 28: Caco-2 Permeability Assay
The goal of this assay was to evaluate the intestinal absorption potential of drug candidates using Caco-2 cell lines.
1. Prewarm Prewarm HBSS Buffer in 37° C. water bath
2. Sonicate Take compounds from −20° C., sonicate for a few minutes (no less than 1 minute)
HBSS buffer with 0.3% DMSO and 5 μM LY: add 150 μL DMSO and 50 μL LY (5 mM) into 50 ml HBSS buffer (pH 7.4).
HBSS buffer with 0.1% DMSO and 5 μM LY: add 50 μL DMSO and 50 μL LY (5 mM) into 50 mL HBSS buffer (pH 7.4).
HBSS buffer with 0.3% DMSO: add 150 μL DMSO into 50 ml HBSS buffer (pH 7.4).
HBSS buffer with 0.1% DMSO: add 50 μL DMSO into 50 ml HBSS buffer (pH 7.4).
Receiver Solution Buffer:
Prepare HBSS buffer with 0.4% DMSO: add 200 μL DMSO into 50 ml HBSS buffer (pH 7.4).
Prepare HBSS buffer with 0.4% DMSO and 5 μM LY: add 200 μL DMSO and 50 μL LY (5 mM) into 50 ml HBSS buffer (pH 7.4).
4. Measure TEER Take cell culture plate out of incubator, wash the cell monolayers with HBSS buffer, and then measure TEER values at Rm temperature. 5. Centrifuge Centrifuge the compound solution (from step 3) at 4000 rpm for 5 min before loading to donor chambers. 6. Dosing Add solution based on the volumes listed in the following table (make sure to take extra 100 μL of donor sample for TO as Backup).
7. Apical LYT0 Samples To determine LY concentration in the apical chember, take 100 μL sample from apical chambers into an opaque plate for LYT0. 8. Prewarm Prewarm apical and basolateral plates at 37° C. for about 5 min, then begin transport by placing the apical plate onto basolateral plate. 9. Incubation Keep the plates in incubator at 37° C. for 90 min. 10. Standard Curve Preparation
For 300 μM compound solution, add 6 μL of compound stock solution into 192 μL of MeOH/H2O (1:1).
Prepare Working Solution in MeOH/H2O (1:1)
3 μL (20×)+57 μL of 0.4% DMSO HBSS+60 μL ACN with IS (Osalmid or Imipramine) - - - 120 μL (1×)
11. Transport Termination Separate the apical plate from the basolateral plate after 90-min incubation.
12. Measure LY Take 100 μL samples from basolateral plate to an opaque plate as LYT90.
13. Measure LY concentrations for LYT0 and LYT90 by Fluorometer (at excitation of 485 nm/emission of 535 nm).
Study details: Test concentration 10 μM
Test systems: Caco-2/HBSS solution
Incubation conditions: 0, 90 min at 37° C.
Sample size: Duplicates (n=2)
Bioanalytical method: LC-MS/MS
For Millicell-24 Cell Culture Plates: surface area of the membrane=0.7 cm^2, VA=0.8 mL (A-to-B) or 0.4 mL (B-to-A)
1. Papp values were calculated based on calculated concentrations.
The compound numbers correspond to the compound numbers in Table 1.
For `Cc1cccnc1[C@@H]1CCC[C@H](c2nc3cccc(N4CCN(C)CC4)n3c2C)N1C` [Compound I-86], the Papp A→B at 90 min, 10 μM was 0.1 to 10 ×10⁻⁶ cm/s, the Papp B→A at 90 min, 10 μM was 10 to 30 ×10⁻⁶ cm/s and the efflux ratio at 90 min, 10 μM was 10 to 30.
`Cc1cccnc1[C@@H]1CCC[C@H](c2cn3ccccc3n2)N1Cc1ccccc1-n1cccn1` [Compound I-16] gave a Papp A→B at 90 min, 10 μM of 10 to 30 ×10⁻⁶ cm/s, a Papp B→A at 90 min, 10 μM of 10 to 30 ×10⁻⁶ cm/s and an efflux ratio at 90 min, 10 μM of 0.1 to 10.
For `Cc1cccnc1[C@@H]1CCC[C@H](c2nc3ccccn3c2N2CCN(C)CC2)N1C` [Compound I-152], the Papp A→B at 90 min, 10 μM was 0.1 to 10 ×10⁻⁶ cm/s, the Papp B→A at 90 min, 10 μM was 10 to 30 ×10⁻⁶ cm/s and the efflux ratio at 90 min, 10 μM was 0.1 to 10.
For `CCN1CCN(c2cccc3nc([C@H]4CCC[C@@H](c5ncccc5C(C)C)N4C)cn23)CC1` [Compound I-111], the Papp A→B at 90 min, 10 μM was 0.1 to 10 ×10⁻⁶ cm/s, the Papp B→A at 90 min, 10 μM was 0.1 to 10 ×10⁻⁶ cm/s and the efflux ratio at 90 min, 10 μM was 0.1 to 10.
`CCN1CCN(Cc2c([C@H]3CCC[C@@H](c4ncccc4C)N3C)nc3ccccn23)CC1` [Compound I-40] showed a Papp A→B at 90 min, 10 μM of 0.1 to 10 ×10⁻⁶ cm/s, a Papp B→A at 90 min, 10 μM greater than 30 ×10⁻⁶ cm/s and an efflux ratio at 90 min, 10 μM greater than 30.
Compound `CCN1[C@@H](c2nc3cccc(N4CCN(C(C)C)CC4)n3c2Br)CCC[C@H]1c1ncccc1C` [Compound I-45] has a Papp A→B at 90 min, 10 μM of 0.1 to 10 ×10⁻⁶ cm/s, a Papp B→A at 90 min, 10 μM of 0.1 to 10 ×10⁻⁶ cm/s and an efflux ratio at 90 min, 10 μM of 0.1 to 10.
Compound `CCN1CCN(c2cccc3nc([C@H]4CCC[C@@H](c5ncccc5C(C)C)N4C)c(CO)n23)CC1` [Compound I-75] has a Papp A→B at 90 min, 10 μM of 0.1 to 10 ×10⁻⁶ cm/s, a Papp B→A at 90 min, 10 μM of 10 to 30 ×10⁻⁶ cm/s and an efflux ratio at 90 min, 10 μM of 0.1 to 10.
Compound `Cc1cccnc1[C@@H]1CCC[C@H](c2cn3c(N4CCNCC4)cccc3n2)N1C` [Compound I-4] has a Papp A→B at 90 min, 10 μM of 0.1 to 10 ×10⁻⁶ cm/s, a Papp B→A at 90 min, 10 μM of 10 to 30 ×10⁻⁶ cm/s and an efflux ratio at 90 min, 10 μM greater than 30.
Work on `Cc1cccnc1[C@@H]1CCC[C@H](c2nc3cccc(N4C5CCC4CN(C)C5)n3c2Cl)N1C` [Compound I-138] yielded a Papp A→B at 90 min, 10 μM of 10 to 30 ×10⁻⁶ cm/s, a Papp B→A at 90 min, 10 μM of 10 to 30 ×10⁻⁶ cm/s and an efflux ratio at 90 min, 10 μM of 0.1 to 10.
For `Cc1cccnc1[C@@H]1CCC[C@H](c2cn3c(N4CCN(C5COC5)CC4)cccc3n2)N1C` [Compound I-52], the Papp A→B at 90 min, 10 μM was 0.1 to 10 ×10⁻⁶ cm/s, the Papp B→A at 90 min, 10 μM was greater than 30 ×10⁻⁶ cm/s and the efflux ratio at 90 min, 10 μM was 10 to 30.
In the case of `Cc1cccnc1[C@@H]1CCC[C@H](c2cn3c(N4CCC(N(C)C)CC4)cccc3n2)N1C` [Compound I-78], the Papp A→B at 90 min, 10 μM is reported as 0.1 to 10 ×10⁻⁶ cm/s, the Papp B→A at 90 min, 10 μM is reported as 10 to 30 ×10⁻⁶ cm/s and the efflux ratio at 90 min, 10 μM is reported as greater than 30.
`Cc1cccnc1[C@@H]1CCC[C@H](c2cn3c(N4CCN5CCCC5C4)cccc3n2)N1C` (stereo partly drawn) [Compound I-77] showed a Papp A→B at 90 min, 10 μM of 10 to 30 ×10⁻⁶ cm/s, a Papp B→A at 90 min, 10 μM greater than 30 ×10⁻⁶ cm/s and an efflux ratio at 90 min, 10 μM of 0.1 to 10.

Molecular target: CXCR-4 transfected U87 cell line (U87.CXCR4) (Homo sapiens (Human), UniProt P61073)
Sequence (P61073 whole entry): as above
Assay: Intracellular CXCL-12-induced calcium mobilization assay (FLIPR)
Type: cell-based
Details: U87.CXCR4 cells, CXCL-12 25-50 ng/mL; read-out: IC50 CXCL-12 Ca2+ flux U87.CXCR4+
Experimental: Example 28: REGA Screening Assay
Intracellular CXCL-12-Induced Calcium Mobilization Assay
Intracellular calcium mobilization induced by chemokines or chemokine-derived peptides were evaluated using a calcium responsive fluorescent probe and a FLIPR system. The CXCR-4 transfected U87 cell line (U87.CXCR4) cells were seeded in gelatine-coated black-wall 96-well plates at 20,000 cells per well and incubated for 12 hours. Cells were then loaded with the fluorescent calcium probe Fluo-2 acetoxymethyl at 4 μM final concentration in assay buffer (Hanks' balanced salt solution with 20 mM HEPES buffer and 0.2% bovine serum albumin, pH 7.4) for 45 min at 37° C. The intracellular calcium mobilization induced by the CXCL-12 (25-50 ng/mL) was then measured at 37° C. by monitoring the fluorescence as a function of time in all the wells simultaneously using a fluorometric imaging plate reader (FLIPR Tetra, Molecular Devices).
Work on `Cc1cccnc1[C@@H]1CCC[C@H](c2nc3cccc(N4CCN(C)CC4)n3c2C)N1C` [Compound I-86] yielded an IC50 of 0.01 to 100 nM.
`Cc1cccnc1[C@@H]1CCC[C@H](c2cn3ccccc3n2)N1Cc1ccccc1-n1cccn1` [Compound I-16] showed an IC50 of 0.01 to 100 nM.
`Cc1cccnc1[C@@H]1CCC[C@H](c2nc3ccccn3c2N2CCN(C)CC2)N1C` [Compound I-152] showed an IC50 of 0.01 to 100 nM.
For `CCN1CCN(c2cccc3nc([C@H]4CCC[C@@H](c5ncccc5C(C)C)N4C)cn23)CC1` [Compound I-111], the IC50 was no less than 1000 nM.
In the case of `CCN1CCN(Cc2c([C@H]3CCC[C@@H](c4ncccc4C)N3C)nc3ccccn23)CC1` [Compound I-40], the IC50 is reported as 0.01 to 100 nM.
For `CCN1[C@@H](c2nc3cccc(N4CCN(C(C)C)CC4)n3c2Br)CCC[C@H]1c1ncccc1C` [Compound I-45], the IC50 was no less than 1000 nM.
Compound `CCN1CCN(c2cccc3nc([C@H]4CCC[C@@H](c5ncccc5C(C)C)N4C)c(CO)n23)CC1` [Compound I-75] has an IC50 of no less than 1000 nM.
In the case of `Cc1cccnc1[C@@H]1CCC[C@H](c2cn3c(N4CCNCC4)cccc3n2)N1C` [Compound I-4], the IC50 is reported as 0.01 to 100 nM.
`Cc1cccnc1[C@@H]1CCC[C@H](c2nc3cccc(N4C5CCC4CN(C)C5)n3c2Cl)N1C` [Compound I-138] gave an IC50 of 0.01 to 100 nM.
For `Cc1cccnc1[C@@H]1CCC[C@H](c2cn3c(N4CCN(C5COC5)CC4)cccc3n2)N1C` [Compound I-52], the IC50 was no less than 1000 nM.
For `Cc1cccnc1[C@@H]1CCC[C@H](c2cn3c(N4CCC(N(C)C)CC4)cccc3n2)N1C` [Compound I-78], the IC50 was 0.01 to 100 nM.
`Cc1cccnc1[C@@H]1CCC[C@H](c2cn3c(N4CCN5CCCC5C4)cccc3n2)N1C` (stereo partly drawn) [Compound I-77] gave an IC50 of 0.01 to 100 nM.
